The values below come from US10842845B2, “Oxytocin improves treatment of obstructive sleep apnea” (THE GEORGE WASHINGTON UNIVERSITY, priority 2014, dated 2020).

In experiment [1] the test system is DREADDs-expressing PVN OXT neurons. Put plainly: Whole-cell patch clamp of DREADDs-expressing PVN OXT neurons, CNO application. It is filed as cell-based, rat. An excerpt:
CVNs in NA and DMNX were identified by the presence of fluorescent tracer rhodamine and imaged using differential interference contrast optics and infrared illumination. Whole cell voltage clamp recordings from CVNs were done using Axopatch 200B and pClamp 8 software (Axon Instruments, Union city, USA), at a holding voltage of −80 mV at room temperature. The patch pipettes (2.5-5 MΩ) were filled with a solution consisting (in mM) of KCl (150), MgCl2 (4), EGTA (10), Na-ATP (2) and HEPES (10) or K-gluconic acid (150), HEPES (10), EGTA (10), MgCl2 (1) and CaCl2 (1) at a pH of 7.3 for recording inhibitory or excitatory events respectively. For PVN studies, forebrain slices were used for electrophysiology recordings.
A rat minimal oxytocin (OXT) promoter element from ˜530 bp to +33 relative to the origin of transcription of the OXT gene (UCSC genome browser on rat November 2004 assembly; chr3:118,193,690 to 118,194,252) was synthesized de novo and flanked by multiple cloning sites (Genscript, Piscataway, N.J.) (McCann et al., 2002; Petersson et al., 1996). […] Expression of these Cre-dependent vectors will only be initiated in neurons selectively expressing Cre as they contain silencing double-foxed inverse open reading frames (Sawchenko and Swanson, 1982). […]
Background: The patch-clamp technique gives a direct electrical read-out from membranes.

Experiment [2] concerns the target T1, DREADDs receptors on PVN OXT neurons (Homo sapiens, UniProt P20309, A239G/Y149C).
T1 construct: mCherry (C); host or cells: PVN oxytocin neurons of Sprague-Dawley rats, in vivo, transduced with AAV2-hSyn-DIO-hM3D(Gq)-mCherry and rAAV1-OXT-Cre
The experiment in a line: Telemetry of resting blood pressure and heart rate before and after CNO injection. In kind it is in vivo, Sprague-Dawley rats. An excerpt: To record blood pressure and heart rate, male Sprague-Dawley rats, 3-4 weeks of age, were anesthetized using isoflurane (2-4%) and a HD-XII pressure transmitter was implanted (Data Sciences International, St Paul, Minn., USA) with its cathether inserted into the abdominal aorta to record pressure and EKG leads were attached subcutaneously to obtain EKG recordings and heart rate. All rats with telemetry devices were allowed 7-14 days to recover from transmitter implantation surgery before any measurements were recorded. Blood pressure and heart rate were recorded via radio-frequency signals obtained through the Ponemah data acquisition system (Data Sciences International). Baseline recordings of blood pressure and heart rate were obtained for 3 days prior to CIH/H exposure. Prior to, and during, the 28 day CIH/H exposure period daily baseline recordings of blood pressure and heart rate were recorded.
1-2 weeks after telemetry implantation, DREADDs receptors on PVN OXT neurons were activated daily by intraperitoneal (IP) injection of clozapine-n-oxide (CNO, 1.0 mg/kg). To investigate the effects of CNO on resting BP and HR in both DREADDs-expressing and sham animals, 3 days prior to CIH/H exposure (control days) baseline BP and HR values were recorded for a 20 min period before CNO injection. Animals from each group then received an IP injection of CNO, BP and HR were recorded for 1 hr, and the animals then underwent exposure to air for 8 hr to achieve acclimation to the chambers. During the 21 days of CIH/H exposure, baseline recordings of BP and HR were obtained before CNO injection, recorded for 1 hr post CNO injection, and for the entire duration of OHM exposure.
To examine the effects of CNO on and the chronic changes to mean arterial blood pressure (MAP) over the 21 days of OHM exposure, values were recorded before and after CNO injection on control days prior to CIH exposures, and days 1, 3, 6, 9, 12, 15, 18, and 21 of CIH/H. Changes within the DREADDs-expressing animals and the sham animals were statistically analyzed by one-way ANOVA with repeated-measures followed by Bonferroni's multiple comparison test. To examine the statistical changes in MAP between the two groups of animals, a two-way ANOVA with repeated-measures followed by Bonferroni's multiple comparison test was used. Data with p<0.05 were considered significant.
CNO administration had no effect on BP represented as mean arterial pressure (MAP) and HR in sham animals without DREADDs expression (FIGS. 10A and 10B). However, CNO administration that activates DREADDs receptors in PVN OXT neurons decreased resting HR and BP throughout 21 days of CIH/H exposure, with significant decreases in MAP (104±2.6 mmHg before CNO to 93±1.7 mmHg after CNO; n=8; ^+p<0.0001; paired t test; FIG. 10A) and HR (416±7.1 beats/min before CNO to 362±10.5 beats/min after CNO; n=8; ^+p<0.01; paired t test; FIG. 10B).

“Also recorded” adds a separate entry of the source.

T1 sequence (P20309 whole entry Y149C/A239G, the tested form may be a part): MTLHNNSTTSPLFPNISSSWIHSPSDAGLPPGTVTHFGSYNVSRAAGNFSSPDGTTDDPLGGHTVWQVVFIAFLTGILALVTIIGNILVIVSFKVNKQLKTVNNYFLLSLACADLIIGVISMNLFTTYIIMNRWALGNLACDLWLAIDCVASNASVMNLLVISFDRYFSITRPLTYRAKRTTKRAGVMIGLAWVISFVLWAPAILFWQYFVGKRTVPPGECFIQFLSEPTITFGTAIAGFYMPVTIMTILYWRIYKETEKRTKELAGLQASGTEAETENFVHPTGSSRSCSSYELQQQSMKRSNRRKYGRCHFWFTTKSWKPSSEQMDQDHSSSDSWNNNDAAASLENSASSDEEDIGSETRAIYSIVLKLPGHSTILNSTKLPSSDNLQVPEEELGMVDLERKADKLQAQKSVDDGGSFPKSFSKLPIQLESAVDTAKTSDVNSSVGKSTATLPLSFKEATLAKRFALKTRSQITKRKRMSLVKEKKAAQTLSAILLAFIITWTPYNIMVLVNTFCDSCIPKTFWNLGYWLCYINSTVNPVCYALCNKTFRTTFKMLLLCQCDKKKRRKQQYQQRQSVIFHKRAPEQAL

On to `C[N+]1([O-])CCN(C2=Nc3cc(Cl)ccc3Nc3ccccc32)CC1` [CNO, clozapine-n-oxide], for which, in experiment [1] (before CNO vs post CNO, 7 neurons), the “firing of PVN OXT neurons expressing DREADDs with CNO application (in words)” value is given as “significantly increases”. Moreover, the “action potential firing frequency of DREADDs-expressing PVN neurons after CNO application” value in experiment [1] (within 5 min of CNO application, from 0.19±0.05 Hz before CNO, n=7) came to 0.75±0.14 Hz. In addition, the “change in HR after CNO injection (in words)” value in experiment [2] (DREADDs-expressing animals, 45 min after CNO injection, n=8) is recorded as “significantly decreased”. For the same molecule, the “MAP after CNO” value in experiment [2] (DREADDs-expressing animals, CNO 1.0 mg/kg IP, 104±2.6 mmHg before CNO, n=8) was found to be 93±1.7 mmHg. The “HR after CNO” value in experiment [2] (DREADDs-expressing animals, CNO 1.0 mg/kg IP, 416±7.1 beats/min before CNO, n=8) was determined as 362±10.5 beats/min. In experiment [2] (oxytocin neuron activated (DREADDs-expressing) animals, 45 min after CNO injection, n=8), the “change in resting MAP after CNO injection (in words)” value is reported as “significantly decreased”. In experiment [2] (sham animals, n=7), the “effect of CNO on HR in sham animals without DREADDs expression (in words)” value is “no effect; also recorded: did not significantly change” and the “effect of CNO on MAP in sham animals without DREADDs expression (in words)” value is given as “no effect; also recorded: did not significantly change”.
